According to PubChem BioAssay AID179 (DTP/NCI, 2004):
Calls of active or inactive are those of the source.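 Rule for the calls: active = compounds giving half or more protection of infected cells from virus-caused growth loss, again on retest; inactive = the rest.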

Test system: CEM cells HIV-1 protection, formazan growth assay
Assay: NCI AIDS Antiviral Assay
Details: for IC50: measured here: growth of uninfected CEM cells
Method in brief: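 Steps: treat uninfected and HIV-1-infected human CEM cells at five drug levels; quantify growth by soluble formazan; retest any compound reaching 50% protection; classify actives from the retest.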

Work on `CCOC(=O)C(NC(=O)NC(C(=O)OCC)C(=O)OCC)C(=O)OCC` yielded an EC50 greater than 200 µM and an IC50 greater than 200 µM.
With `CCOC(=O)N1CCC(=O)C[C@@H]1C/C=C/P1(=O)O[C@H](c2ccccc2)C(C)N1C(C)C` (some centres not stated) the outcome was “inactive”.
`COc1ccc(NC(=O)CC(=O)N2N=C(c3ccccc3)C(N=Nc3ccc(S(=O)(=O)CCOS(=O)(=O)O)cc3)C2=O)cc1` (configuration not stated) showed an EC50 greater than 200 µM and an IC50 greater than 200 µM.
Work on `CC1(C)C(O)c2ccccc2OC1N1CCN(C2Oc3ccccc3C(O)C2(C)C)CC1` (configuration not stated) yielded an EC50 greater than 200 µM and an IC50 greater than 200 µM.
`Cc1cc(-c2ccccc2)oc(=O)c1NC(=O)c1cnccn1` showed an EC50 greater than 200 µM and an IC50 of 141 µM.
In the case of `CCOC(=O)CCn1ncc(Cl)c(Cl)c1=O`, the EC50 is reported as greater than 933 µM and the IC50 is reported as 4.07 µM.
`O/N=C(\CC(O)(C(F)(F)F)C(F)(F)F)c1cccs1` gave an EC50 greater than 200 µM and an IC50 greater than 100 µM.
For `COCC12CCC(OC)C34C5CC6(O)C(OC)C=C(C5C6OC(=O)c5ccccc5)C(C(OC)C13)C4N(C)C2` (configuration not stated), the outcome was “inactive”.
With `O=C(NP(=O)(N1CC1)N1CC1)OCc1ccccc1` the EC50 was greater than 200 µM and the IC50 was greater than 200 µM.
`O=C1c2ccccc2-c2cccc3ccc(Cc4ccc5ccccc5c4)c1c23` gave an EC50 greater than 5.13 µM and an IC50 greater than 5.13 µM.
In the case of `CC(C)(C)C(=CS(=O)/N=C/c1ccccc1)C(C)(C)C` (configuration not stated), the EC50 is reported as greater than 24.5 µM and the IC50 is reported as greater than 24.5 µM.
`CC(=O)C(=Cc1ccc(C=C(C(C)=O)C(C)=O)cc1)C(C)=O` showed an EC50 greater than 200 µM and an IC50 of 0.933 µM.
`COc1ccc2nc(NC(=O)C(=O)CC(=O)c3ccc([N+](=O)[O-])cc3)sc2c1` was tested, and the outcome was “inactive”.
For `O=C1OC(/C=C/c2ccccc2)Sc2ccccc21` (configuration not stated), the outcome was “inactive”.
In the case of `COc1cc(C2(C)OC(=O)c3ccccc32)c(OC)c2ccccc12` (configuration not stated), the EC50 is reported as greater than 44.7 µM and the IC50 is reported as 7.76 µM.
Work on `Cc1cccc(C)c1NC(=O)CCC(=O)NNc1nnc(C)n1N` yielded an EC50 greater than 398 µM and an IC50 greater than 398 µM.
`CC(C)(Cc1ccccc1)C(=C=C=C=C(c1ccccc1)C(C)(C)Cc1ccccc1)c1ccccc1` gave an EC50 greater than 46.8 µM and an IC50 greater than 46.8 µM.
`OCC1(CO)CSSC1` was tested, and the EC50 was 132 µM and the IC50 was 1510 µM.
In the case of `CC(=O)O/N=C(/C)c1ccccc1O`, the EC50 is reported as greater than 26.9 µM and the IC50 is reported as greater than 26.9 µM.
For `C1=Cc2nc1c(-c1ccccc1)c1ccc([n-]1)c(-c1ccccc1)c1nc(c(-c3ccccc3)c3ccc([n-]3)c2-c2ccccc2)C=C1.[Zn+2]`, the EC50 was greater than 27.5 µM and the IC50 was greater than 27.5 µM.
`CC1CC(C)CC(C)C(O)/C(C#N)=C/C=C/CC(C2CCCC2C(=O)O)OC(=O)CC(O)C(C)C1` (configuration not stated) showed an EC50 greater than 2.57 µM and an IC50 of 0.00575 µM.
`CNC(=O)N(Cc1ccccc1)C[C@@H]1CCCN1C(C)=O` showed an EC50 greater than 200 µM and an IC50 greater than 200 µM.
Work on `c1ccc(N=c2snc3scc(-c4ccccc4)n23)cc1` yielded an EC50 greater than 23.4 µM and an IC50 greater than 23.4 µM.
In the case of `c1ccc2c(c1)CC1c3[nH]c4ccccc4c3CCN21` (configuration not stated), the EC50 is reported as greater than 200 µM and the IC50 is reported as 55 µM.
`NCCCNCCCCN1CC1` was tested, and the EC50 was greater than 200 µM and the IC50 was 1.17 µM.
`CCNc1cc2oc(=O)cc(C(F)(F)F)c2cc1C` showed an EC50 greater than 13.8 µM and an IC50 greater than 13.8 µM.
For `CCCCCCCCCc1cc(=O)c2c(O)cc(O)cc2o1`, the outcome was “inactive”.
With `CCC(C)(C)c1ccc(OP(=S)(S)Oc2ccc(C(C)(C)CC)cc2)cc1` the EC50 was greater than 200 µM and the IC50 was 37.2 µM.
With `O=C(O)CCC(O)=C1S(=O)(=O)OCCOS1(=O)=O` the EC50 was greater than 4470 µM and the IC50 was 331 µM.
In the case of `CC1C/C(=C\c2ccc(O)c(O)c2)C(=O)/C(=C/c2ccc(O)c(O)c2)C1` (configuration not stated), the EC50 is reported as greater than 200 µM and the IC50 is reported as 10 µM.
`COc1ccc(/C=C(\C#N)c2ccccc2)cc1OC` was tested, and the EC50 was greater than 70.8 µM and the IC50 was greater than 70.8 µM.
With `O=C1c2cccc3c([N+](=O)[O-])ccc(c23)C(=O)N1NCCO` the outcome was “inactive”.
Molecule `CSC1=N/C(=C\c2ccc(C)cc2)C(=O)N1` has an EC50 greater than 200 µM and an IC50 of 178 µM.
Work on `CN(C)/N=N/c1nc2c(c(=O)n(C)c(=O)n2C)n1C` yielded an EC50 greater than 151 µM and an IC50 greater than 151 µM.
`O=C1CCc2cc3c(cc21)CC1(Cc2cc4c(cc2C1)CCCC4)C3` was tested, and the EC50 was greater than 200 µM and the IC50 was 138 µM.
Molecule `O=c1[nH]nc(-c2ccccc2)c(-c2ccccc2)c1-n1nc(-c2ccccc2)c2ccccc2c1=O` has an EC50 greater than 10.7 µM and an IC50 greater than 10.7 µM.
`COC(=O)c1cccc(OC)c1C#Cc1c(OC)cccc1OC` was tested, and the EC50 was greater than 200 µM and the IC50 was 21.9 µM.
`CC(=O)NC(CCC(=O)c1ccc(Oc2ccccc2)cc1)(C(=O)O)C(=O)O` was tested, and the EC50 was greater than 200 µM and the IC50 was greater than 200 µM.
In the case of `O=[N+]([O-])c1ccc(C2=Nc3ccccc3SC(c3ccccc3)C2)cc1` (configuration not stated), the EC50 is reported as greater than 27.5 µM and the IC50 is reported as greater than 27.5 µM.
With `COc1cccc(NC(=O)CC(=O)NNCC(=O)Nc2nnc(-c3ccc(N(CCC#N)S(=O)(=O)c4ccccc4)cc3)s2)c1` the EC50 was greater than 77.6 µM and the IC50 was 66.1 µM.
`CCCCCC=C(c1cc(Cl)c(OC)c(C(=O)OCCC)c1)c1cc(Cl)c(OC)c(C(=O)OCCC)c1` was tested, and the EC50 was greater than 12.3 µM and the IC50 was greater than 12.3 µM.
With `CNc1ccc(C)cc1S(=O)(=O)c1ccc(OC)cc1` the EC50 was greater than 200 µM and the IC50 was 95.5 µM.
Molecule `N#CCN1CCCN(CC#N)CCN(CC#N)CCCN(CC#N)CC1` has an EC50 greater than 200 µM and an IC50 of 141 µM.
With `CC[C@@H](CCCC[C@@H]1CC[C@H]2CC(=O)C[C@@H]12)OC` the EC50 was greater than 200 µM and the IC50 was 186 µM.
